# Assay results reported in patent US7691836B2, “Progesterone receptor modulators” (N.V. Organon, priority 2004, dated 2010).
# Counter-ions that a name gives are not always drawn.
# How the values were obtained:
# progesterone receptor-B [1] = biological target: T1, progesterone receptor-B (Homo sapiens, UniProt P06401); assay: Progesterone receptor-B transactivation, agonistic mode (CHO cells, luciferase); type: cell-based; conditions: for EC50: CHO cells, agonistic mode, read-out: PRBagoEC50; for Emax: CHO, read-out: PRBago Eff (%)
# T1 sequence (P06401 1-933): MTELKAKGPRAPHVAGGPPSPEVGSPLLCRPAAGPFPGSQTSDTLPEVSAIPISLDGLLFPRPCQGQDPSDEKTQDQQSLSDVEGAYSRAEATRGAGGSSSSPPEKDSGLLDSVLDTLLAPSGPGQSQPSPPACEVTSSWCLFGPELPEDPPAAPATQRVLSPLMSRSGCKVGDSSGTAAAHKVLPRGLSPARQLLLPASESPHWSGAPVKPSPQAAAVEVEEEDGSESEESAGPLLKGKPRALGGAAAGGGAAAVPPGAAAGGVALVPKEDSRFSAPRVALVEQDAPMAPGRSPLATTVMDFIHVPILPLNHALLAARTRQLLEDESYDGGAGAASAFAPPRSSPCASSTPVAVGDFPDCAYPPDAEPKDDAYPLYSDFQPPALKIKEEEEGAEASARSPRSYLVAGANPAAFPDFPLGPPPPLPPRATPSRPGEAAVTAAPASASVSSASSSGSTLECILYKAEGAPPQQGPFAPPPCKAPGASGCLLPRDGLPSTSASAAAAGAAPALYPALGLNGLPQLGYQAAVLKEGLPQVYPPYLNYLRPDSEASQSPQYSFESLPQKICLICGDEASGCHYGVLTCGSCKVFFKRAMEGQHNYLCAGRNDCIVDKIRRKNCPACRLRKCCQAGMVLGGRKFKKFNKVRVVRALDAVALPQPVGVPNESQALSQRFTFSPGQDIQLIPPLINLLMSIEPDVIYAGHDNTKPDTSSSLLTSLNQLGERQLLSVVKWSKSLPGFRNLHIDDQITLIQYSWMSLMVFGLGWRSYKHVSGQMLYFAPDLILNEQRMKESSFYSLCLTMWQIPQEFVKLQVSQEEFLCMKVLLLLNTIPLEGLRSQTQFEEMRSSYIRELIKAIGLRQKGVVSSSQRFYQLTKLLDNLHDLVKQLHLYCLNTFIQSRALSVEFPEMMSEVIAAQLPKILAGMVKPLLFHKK
# From the text: For selecting compounds of the subject invention with a mixed modulating effect on the progesterone receptor, testing in the agonistic mode must result in an intrinsic activity of between about 15% and about 85% of the maximal activity when (16α)-16-ethyl-21-hydroxy-19-norpregn-4-ene-3,20-dione is used as a reference. Moreover, this maximal agonistic activity should be reached at a concentration of 10^−6 or less, and preferably at a concentration of 10^−8 or less.
# (§1) The progestagenic activity of a compound of the invention (EC50 and intrinsic agonistic activity) was determined in an in vitro bioassay of Chinese hamster ovary (CHO) cells as described by W. G. E. J. Schoonen et al. (Anal. Biochem. 261 (1998), 222-224). […] The efficacy of the antagonistic effect was expressed as the percentage of the effect produced by a standard antagonist, (6β,11β,17β)-11-[4-(dimethylamino)phenyl]-4′,5′-dihydro-6-methylspiro[estra-4,9-diene-17,2′(3′H)-furan]-3-one.
# (§2) It will be recognized by those skilled in the art that, in the setting described above, the EC50 determined is more or less absolute and depends on the intrinsic property of the tested compound itself, however, the IC50 depends on the amount and agonistic EC50 of the inducer as well as on the intrinsic property of the tested compound itself. Thus, with the same amount of inducer, a relatively strong antagonist will be able to produce a measurable IC50 whereas a relatively weak antagonist may fail to produce a detectable result.
# progesterone receptor-B [2] = biological target: T1, progesterone receptor-B; assay: Progesterone receptor-B transactivation, antagonistic mode (inhibition of luciferase transactivation by inducer, CHO cells); type: cell-based; conditions: for Emax: CHO, read-out: PRBant Eff (%); for EC50: in the presence of 0.1 nM inducer (16α)-16-ethyl-21-hydroxy-19-norpregn-4-ene-3,20-dione, read-out: PRBant EC50
# Method: In the antagonistic mode, testing must result in an intrinsic activity of between about 85% and about 15% of the maximal activity when (6β,11β,17β)-11-[4-(dimethylamino)phenyl]-4′,5′-dihydro-6-methylspiro[estra-4,9-diene-17,2′(3′H)-furan]-3-one is used as a reference.
# as §1, §2
# [3] = intrinsic agonistic activity, relative to reference (16α)-16-ethyl-21-hydroxy-19-norpregn-4-ene-3,20-dione
# [4] = intrinsic antagonistic activity, percentage of effect of standard antagonist (6β,11β,17β)-11-[4-(dimethylamino)phenyl]-4′,5′-dihydro-6-methylspiro[estra-4,9-diene-17,2′(3′H)-furan]-3-one, 0.1 nM inducer
SMILES,EC50 (progesterone receptor-B [1]) [nM],Emax (progesterone receptor-B [1]; [3]) [%],Emax (progesterone receptor-B [2]; [4]) [%],EC50 (progesterone receptor-B [2]) [nM],PRBago Eff (%) (progesterone receptor-B [1]; [3]),"PRBant Eff (%) (progesterone receptor-B [2]; intrinsic antagonistic activity, percentage of effect of standard antagonist (6β,11β,17β)-11-[4-(dimethylamino)phenyl]-4′,5′-dihydro-6-methylspiro[estra-4,9-diene-17,2′(3′H)-furan]-3-one, 0.1 nM inducer, hydrochloride)"
"C[C@]12C[C@H](c3ccc(-c4cccnc4)cc3)C3=C4CCC(=O)C=C4CC[C@H]3[C@@H]1CC[C@@H]2C(=O)C1CC1 [Example 18, (11β,17β)-17-cyclopropylcarbonyl-11-[4-(3-pyridinyl)phenyl]estra-4,9-dien-3-one]",0.82,36,66,0.751,,
"COc1ccc(-c2ccc([C@H]3C[C@]4(C)[C@@H](C(=O)C5CC5)CC[C@H]4[C@@H]4CCC5=CC(=O)CCC5=C43)cc2)cn1 [Example 19, (11β,17β)-17-cyclopropylcarbonyl-11-[4-(6-methoxypyridin-3-yl)phenyl]estra-4,9-dien-3-one]",0.51,28.3,57,0.427,,
"C[C@]12C[C@H](c3ccc(-c4cccnc4)cc3)C3=C4CCC(=O)C=C4CC[C@H]3[C@@H]1C[C@H]1C[C@]12C(=O)C1CC1 [Example 21, (11β,16α,17β)-17-cyclopropylcarbonyl-16,17-dihydro-11-[4-(3-pyridinyl)phenyl]-3′H-cyclopropa[16,17]estra 4,9,16-trien-3-one]",2,18,58,1.4,,
"C[C@@H]1C[C@H]2[C@@H]3CCC4=CC(=NO)CCC4=C3[C@@H](c3ccc(-c4cccnc4)cc3)C[C@]2(C)[C@H]1C(=O)C1CC1 [Example 22, (11β,16α,17β)-17-cyclopropylcarbonyl-16-methyl-11-[4-(3-pyridinyl)-phenyl]estra-4,9-dien-3-one 3-oxime]",0.64,43,32,1.47,,
"COc1ccc(-c2ccc([C@H]3C[C@@]4(C)[C@@H](CC[C@@]45CCCC5=O)[C@@H]4CCC5=CC(=O)CCC5=C43)cc2)cn1 [Example 24, (11β)-11-[4-(6-methoxypyridin-3-yl)phenyl]-17,24-cyclo-19,21-dinorchola 4,9-diene-3,20-dione]",0.15,20,62,0.546,,

# Results, then the compound that gave them:
EC50 (progesterone receptor-B [1]) [nM],Emax (progesterone receptor-B [1]; [3]) [%],Emax (progesterone receptor-B [2]; [4]) [%],EC50 (progesterone receptor-B [2]) [nM],PRBago Eff (%) (progesterone receptor-B [1]; [3]),"PRBant Eff (%) (progesterone receptor-B [2]; intrinsic antagonistic activity, percentage of effect of standard antagonist (6β,11β,17β)-11-[4-(dimethylamino)phenyl]-4′,5′-dihydro-6-methylspiro[estra-4,9-diene-17,2′(3′H)-furan]-3-one, 0.1 nM inducer, hydrochloride)",SMILES
0.49,37.5,58,0.13,,,"C[C@]12C[C@H](c3ccc(-c4cccnc4)cc3)C3=C4CCC(=O)C=C4CC[C@H]3[C@@H]1CC[C@]2(C)C(=O)C1CC1 [Example 20, (11β,17β)-17-cyclopropylcarbonyl-17-methyl-11-[4-(3-pyridinyl)-phenyl]estra-4,9-dien-3-one]"
0.29,17,70.8,0.325,,,"CC12CC(c3ccc(-c4cccnc4)cc3)C3=C4CCC(=O)C=C4CCC3C1CCC21CCCC1=O (stereo not drawn) [Example 23, (11β)-11-[4-(3-pyridinyl)phenyl]-17,24-cyclo-19,21-dinorchola 4,9-diene-3,20-dione]"
0.48,,,1.1,17,66,"CC12CC(c3ccc(-c4cccnc4)cc3)C3=C4CCC(=O)C=C4CCC3C1CCC21CCCC1=O (stereo not drawn) [Example 25, (11β)-11-[4-(3-pyridinyl)phenyl]-17,24-cyclo-19,21-dinorchola-4,9-diene-3,20-dione hydrochloride]"
0.809,46,17,2.75,,,"C[C@@H]1C[C@@H]2C(=C3CCC(=O)C=C31)[C@@H](c1ccc(-c3cccnc3)cc1)C[C@@]1(C)[C@H]2C[C@@H](C)[C@@H]1C(=O)C1CC1 [Example 26, (6β,11β,16α,17β)-17-cyclopropylcarbonyl-6,16-dimethyl-11-[4-(3-pyridinyl)-phenyl]estra-4,9-dien-3-one]"
2.54,52,> 27,3.25,,,"C[C@@H]1C[C@H]2[C@@H]3CCC4=CC(=O)CCC4=C3[C@@H](c3ccc(-c4ncccn4)cc3)C[C@]2(C)[C@H]1C(=O)C1CC1 [Example 27, (11β,16α,17β)-17-cyclopropylcarbonyl-16-methyl-11-[4-(pyrimidin-2-yl)phenyl]estra-4,9-dien-3-one]"
